The text below walks through data of patent publication US5219867A, “Platelet aggregation inhibitory agents” (priority 1992, dated 1993).

The test system of one assay is male ICR mice. As to the kind of experiment: Mouse antithrombotic assay (collagen-epinephrine thromboembolic death). The class given is in vivo. The note with it: for ED50: ip, 30 min before i.v. collagen-epinephrine challenge, read-out: ED50 (protection from thromboembolic death). On the procedure:
The method employed is similar to Myers, et al's (Proc. Soc. Exp. Biol. Med., Vol. 183, Pages 86-91, 1986) modification of the procedure of DiMinno and Silver (J. Pharmacl. Exp. Therap., Vol. 225, Pages 57-60, 1983). Male ICR mice 25 g-35 g were used in this study. Collagenreagent Horm, containing 1 mg/ml of native collagen fibrils from equine tendons suspended in isotonic glucose solution of pH 2.7 was obtained from Horm -Chemie Momchem GMBH, Munchen, Germany; Epinephrine Injection, USP 1 mg/ml was from Abbott Laboratories, North Chicago, Ill.
Rac.I.2HBr was dissolved in physiological saline and (+)-I (I-C) was dissolved in saline at pH 6.5 at a concentration which yielded the desired dosage when 10 ml/kg of the compound solution was injected intraperitoneally (i.p.) to the mouse. Control mice received 10 ml/kg of the solvent/vehicle intraperitoneally.
Thirty (30) minutes after administration of test compound, the mouse was challenged with intravenous collagen-epinephrine suspension. The procedure is as follows: Fifteen (15) minutes after i.p. administration of test compound, the mouse was given 50-60 mg/kg of pentobarbital sodium (Nembutal). About 10-12 minutes later (when the mouse was anesthetized) the jugular vein was surgically exposed in preparation for the intravenous collagen-epinephrine injection.
Thirty (30) minutes after i.p. administration of the test compound (and about 15 minutes after i.p. Nembutal) the mouse's platelets were challenged with 0.00333 ml/gm (0.10 ml/30 gm mouse) of the intravenous collagen-epinephrine suspension into the jugular vein. [The collagen-epinephrine suspension contained 0.15 mg collagen fibrils and 0.018 mg of epinephrine per ml of the suspension]. The rate of injection for the collagen-epinephrine suspension was consistent from one mouse to the next.
Graded doses of the compound were administered to mice prior to the aggregation challenge. The ED50 was determined graphically from a Probit-log plot of percent of mice protected (Probit) by each dose (log scale) of the compound. […]

A further assay has as its system human platelets. As to the kind of experiment: Inhibition of collagen-induced aggregation, washed aequorin-loaded platelet suspension. The class given is cell-based. The note with it: for IC50: Homo sapiens, Platelet, collagen-induced aggregation (n = 4), HEPES-buffered saline, 1.0 mM CaCl2, read-out: Ia50 ± S.E. Collagen-induced. The method, then:
Procedure for Cytosolic Ionized Calcium Determination. The basic procedure of Yamaguchi, et al. (Thromb. Res., Vol. 44, Pages 165-174, 1986) was followed. Blood was collected from six blood donors, aged 24-38 years, who had fasted overnight and affirmed abstinence from alcohol, caffeine and medications of any kind for a period of at least one week prior to donation. […] Platelets were collected (800 g, 15 min), resuspended in and washed (800 g, 15 min) with HEPES-buffered saline (140 mM NaCl, 2.7 mM KCl, 0.1% bovine albumin, 0.5% glucose, 3.8 mM HEPES, pH 7.6) with EGTA (5 mM) and PGE1 (1 μM). The platelet pellet was resuspended in 90 μl of the same buffer and added to 20μl of 3 mg/ml aequorin solution in a 1.5 ml Eppendorf centrifuge tube. Six 1 μl aliquots of DMSO were added at 90 second intervals with brief, gentle mixing on a Vortex mixer and the platelet suspension was incubated 2 minutes after the last addition. One ml of HEPES-buffered saline was added, gently mixed, and again incubated for 2 minutes. The platelets were pelleted (1000 g, 30 sec), resuspended in HEPES-buffered saline to which was added either 1 mM Mg Cl2, (calcium-free buffer) or 1 mM Mg Cl2 and 1 mM Ca Cl2 (calcium buffer), depending on the experiment. The platelet count was adjusted to 3-4×10^5 platelets/μl.
The Platelet Ionized Calcium Aggregometer (Chrono-Log Corp., Ltd., Havertown, Pa.) was used to obtain simultaneous aggregation and luminescence data under the following experimental conditions: (1) platelet suspension, 1 ml, was equilibrated at 37° C. with stirring at 1100 rpm; (2) 100 μl (1.2 μg) of fibrinogen was added; (3) the vehicle (95% ethanol) or the test compound in vehicle was added; (4) when needed, 10 μl of the desired concentration of EGTA was added 30 seconds prior to addition of the agonist; then (5) the agonist (Collagen, 5 μg or 20 μg) was added and the time noted. At one minute after addition of the agonist in Channel 1, a platelet sample containing fibrinogen in Channel 2 was lysed with 10 μl of a 1:1 solution of Triton X-100 (final concentration 0.005%) 10 mM CaCl2 (final concentration 0.5 mM). Treated and control […] data were corrected for time dependent decay of fluorescence using data from the untreated lysed controls.
Normally 4 compound-treated samples (at 4 different concentrations) interspersed with 3 control samples were evaluated at 4.5 minute intervals starting 18-23 minutes after the DMSO treatment. The Ia50 values were calculated as described earlier. The compound concentrations effecting 50% inhibition (Ica50) of collagen-induced cytosolic ionized calcium values was determined by linear regression analysis.
Compounds I-rac, (+)-I,(IC) and (-)-I(IA) were evaluated. The Ia50 (collagen-induced aggregation) and Ica50 (compound concentration required to inhibit by 50% the collagen-induced rise in cytosolic ionized calcium)values determined with platelet suspensions in HEPES-buffered saline containing 1.0 mM CaCl2 were as follows: […]

Several values for one entry are separate records, joined by “and”; a condition that tells them apart may be missing. Equal values may be shown once. Where a name gives a salt, the structure may show the parent alone.

On to `CCN(CC)C(=O)C1CCCN(Cc2ccc(CN3CCCC(C(=O)N(CC)CC)C3)cc2)C1` (racemic) [Compound I, α-α'-Bis[3-(N,N-diethyl-carbamoyl)piperidino]-p-xylene dihydrobromide], for which, in the assay with male ICR mice, the ED50 was 104 mg/kg and 164 µmol/kg. Also, the IC50 in the assay on human platelets worked out at 20.2 µM.

Consider `CCN(CC)C(=O)C1CCCN(Cc2ccc(CN3CCCC(C(=O)N(CC)CC)C3)cc2)C1` (single isomer, unassigned) [IC, α-α'-Bis(3-N,N-diethylcarbamoyl)piperidino]-p-xylene dihydrobromide], for which the “Potency in protecting mice from thromboembolic death relative to racemic I.2HBr” value in the assay with male ICR mice (i.p.) is given as “approximately three times more potent”. The median effective dose (ED50) in the assay with male ICR mice was 33.5 mg/kg and 71.2 µmol/kg. Further, the IC50 in the assay with human platelets amounted to 10.7 ± 2.7 µM. Further, the “Potency in inhibiting aggregation relative to (-)-I” value in the assay on human platelets (collagen as agonist, in vitro) amounted to 18 times.
